Where “and” joins values, the source holds several entries; their conditions need not be identical. Equal entries are not always repeated. Where two headings read alike, the source gives them in different places.
What was measured:
Rat single dose PK study = format: in vivo; details: 1 mg/kg; for concentration at 4 h: oral
Protocol: Rat Single Dose PK Study (Inhibition of CSF Aβ40 in Wistar Rats)
The rat single dose PK study was described in H. Hilpert et al., J. Med. Chem. 2013, 56, 3980-3995 (dx.doi.org/10.1021/jm400225m) with slight modifications.
Blood is transferred into a labeled EDTA-K2 Eppendorf tube and the sample is mixed by inverting the tubes several times. Blood is stored at −20° C.

BACE1 = BACE1 (Homo sapiens, UniProt P56817); experiment: BACE1 KD SPR assay; format: binding; details: Surface Plasmon Resonance
Sequence of BACE1 (P56817 46-501): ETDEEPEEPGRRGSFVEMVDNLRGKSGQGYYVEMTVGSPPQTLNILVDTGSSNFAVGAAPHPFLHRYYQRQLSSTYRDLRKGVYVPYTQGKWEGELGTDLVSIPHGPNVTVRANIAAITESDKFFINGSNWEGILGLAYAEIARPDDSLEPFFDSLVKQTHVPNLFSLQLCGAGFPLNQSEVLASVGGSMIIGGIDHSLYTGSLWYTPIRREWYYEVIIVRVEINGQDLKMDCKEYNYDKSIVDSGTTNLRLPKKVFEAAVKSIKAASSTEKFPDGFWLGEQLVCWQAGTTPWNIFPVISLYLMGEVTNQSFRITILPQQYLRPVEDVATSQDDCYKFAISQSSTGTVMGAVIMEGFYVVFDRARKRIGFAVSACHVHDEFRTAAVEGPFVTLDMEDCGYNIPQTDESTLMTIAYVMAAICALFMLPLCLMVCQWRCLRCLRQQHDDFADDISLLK
Protocol: Surface Plasmon Resonance measurements were performed on a Biacore T200 instrument. Immobilization of BACE-1 was performed by standard amine coupling chemistry on a CMS sensor to achieve protein surface density of ˜8000 pg/mm2 (RU). Immobilization was performed using the acetate buffer (25 mM Na acetate, 150 mM NaCl, 0.01% P20, 3 mM EDTA, pH 4.5) as the running buffer at 25° C. In the first step the carboxyl groups of CMS sensor surface were transformed to the reactive succinimide esters by contacting the sensor surface 7 minutes with a solution of 0.2 M N-ethyl-N-dimethylaminopolycarboodiimide (EDC) and 0.05 M N-hydroxysuccinimide (NHS). After the activation, the sensor surface was contacted with (˜5 μgml-1 BACE1 protein solution in 10 mM sodium acetate coupling buffer (pH 4.5) to reach desired protein surface density. Finally, the excess of activated carboxylic groups on the surface was quenched with ethanolamine (1 M, pH 8.5, 7 min).
Binding assays were performed at 18° C. under the same buffer conditions as immobilization of the protein. Compounds were dissolved in DMSO as 10 mM stocks and diluted in running buffer to perform titration series (5 concentrations with dilution factor of 2) on a protein and reference (activated and deactivated CMS sensor surface) surfaces in parallel.

For Cc1cc(C#N)cnc1C(=O)Nc1ccc(F)c([C@@]2(C)N=C(N)O[C@H](C(F)(F)F)[C@@H]2F)n1 [Example 1, N-(6-((4R,5R,6S)-2-amino-5-fluoro-4-methyl-6-(trifluoromethyl)-5,6-dihydro-4H-1,3-oxazin-4-yl)-5-fluoropyridin-2-yl)-5-cyano-3-methylpicolinamide], the “Plasma concentration at 4 h, free” value (Rat single dose PK study; 4 h, free unbound) was 12.5 nM, the “Plasma concentration at 4 h” value (Rat single dose PK study; 4 h, total) was 90.2 nM and the concentration at 4 h (Rat single dose PK study; Wistar, plasma, 4 h, free unbound, read-out: Plasma concentration at 4 h, free) was 12.5 nM. For the same compound, the concentration at 4 h (Rat single dose PK study; Wistar, plasma, 4 h, free, read-out: Plasma concentration at 4 h, free) was 41 ng/mL, the concentration at 4 h (Rat single dose PK study; Wistar, plasma, 4 h, total, read-out: Plasma concentration at 4 h) was 90 nM and 41 ng/mL and the bioavailability (Rat single dose PK study; Wistar, plasma, po, read-out: Oral Bioavailability F) was 62%. For the same compound, the Kd (BACE1; 18° C., pH 4.5) was 2 nM and the residence time (BACE1; t1/2=0.693/koff) was 16 min.
